This note sets out measurements from PubChem BioAssay (NCI).

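Tested at 5 concentrations; 48 h exposure; 96-well plates; endpoints linearly interpolated, else capped at highest concentration. TGI marks complete inhibition of growth.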 Some results are limits rather than exact numbers.

Some test systems named below: CAKI-1 renal; SK-MEL-2 melanoma; NCI-H460 lung; HT29 colon; SK-MEL-28 melanoma; U251 CNS; HOP-92 NSCLC; NCI-H226 lung; MOLT-4 leukemia; LOX IMVI melanoma; A549 NSCLC; KM12 colon; UACC-62 melanoma; COLO 205 colon; CCRF-CEM leukemia; HOP-62 NSCLC; OVCAR-3 ovarian; UO-31 renal; EKVX NSCLC; OVCAR-8 ovarian.
Common to all, as to experiment: inhibition of tumour cell growth, NCI panel, 48 h

Turning to `Cc1cccc(N2C(=O)C3c4[nH]c5ccc(C)cc5c4C4CCC(C(C)(C)C)CC4C3C2=O)c1` (stereo not given), the TGI is > 100 µM in the experiment on CAKI-1 renal; > 100 µM with SK-MEL-2 melanoma; 36.3 µM with NCI-H460 lung; > 100 µM in the experiment with HT29 colon; > 100 µM in the experiment on SK-MEL-28 melanoma; 62.3 µM in the experiment on U251 CNS. The TGI in the experiment with HOP-92 NSCLC was found to be 57.6 µM; in the experiment on NCI-H226 lung, 36.5 µM; with MOLT-4 leukemia, 29.7 µM; in the experiment on LOX IMVI melanoma it was 43.7 µM; in the experiment on A549 NSCLC, 60.7 µM; in the experiment on KM12 colon, 38 µM. The TGI in the experiment with UACC-62 melanoma is > 100 µM; with COLO 205 colon, > 100 µM; in the experiment on CCRF-CEM leukemia, 68 µM; in the experiment on HOP-62 NSCLC, 30.9 µM; in the experiment on OVCAR-3 ovarian it was 28.9 µM; with UO-31 renal, > 100 µM. Also, the TGI with EKVX NSCLC worked out at 85.6 µM; in the experiment on OVCAR-8 ovarian it was 47.7 µM.
With `CCCCOP(C)(=O)C(NC(=O)OCC)(C(F)(F)F)C(F)(F)F` (stereo not given), the TGI in the experiment with CAKI-1 renal, in the experiment with SK-MEL-2 melanoma, with NCI-H460 lung, in the experiment with HT29 colon, in the experiment with SK-MEL-28 melanoma and in the experiment on U251 CNS was > 100 µM each time. Moreover, the TGI in the experiment with HOP-92 NSCLC, with NCI-H226 lung, with MOLT-4 leukemia, in the experiment with LOX IMVI melanoma, in the experiment on A549 NSCLC and with KM12 colon was > 100 µM throughout. The TGI in the experiment with UACC-62 melanoma, with COLO 205 colon, with CCRF-CEM leukemia, with HOP-62 NSCLC, in the experiment with OVCAR-3 ovarian and in the experiment on UO-31 renal was > 100 µM each time. Besides, the TGI in the experiment with EKVX NSCLC and in the experiment on OVCAR-8 ovarian was > 100 µM throughout.
For the compound `C=C1C(=O)OC2CC(C)C3C4OC4C(O)C3(C)C(O)C12` (stereo not given), the TGI in the experiment on CAKI-1 renal was 67.9 µM; in the experiment on SK-MEL-2 melanoma it was 72.7 µM; with NCI-H460 lung, 62.9 µM; with HT29 colon it was 83.8 µM; with SK-MEL-28 melanoma, 71.2 µM; with U251 CNS it was 96.6 µM. Further, the TGI with HOP-92 NSCLC is 61.9 µM; in the experiment on NCI-H226 lung, > 68 µM; with MOLT-4 leukemia, 41.8 µM; in the experiment with LOX IMVI melanoma, 65.3 µM; in the experiment on A549 NSCLC it was 121 µM; in the experiment on KM12 colon, 71.1 µM. For the same compound, the TGI in the experiment on UACC-62 melanoma was found to be 43.8 µM; in the experiment on COLO 205 colon, 51.6 µM; in the experiment with CCRF-CEM leukemia, 56 µM; with HOP-62 NSCLC it was 127 µM; in the experiment on OVCAR-3 ovarian, 69.3 µM; in the experiment on UO-31 renal it was 149 µM. The TGI in the experiment on EKVX NSCLC amounted to 63.9 µM; in the experiment on OVCAR-8 ovarian, 91.6 µM.
